In patent publication US8084644B2, “Iminopropene compound and use thereof” (Sumitomo Chemical Company, Limited, priority 2005, dated 2011):

Tests used:
[1] = system: Haemaphysalis longicornis; experiment: Test Example 11: filter paper bag contact test on ticks; format: in vivo; conditions: 48 h, 0.5 mg test compound on 5 cm×10 cm filter paper, after 2 days
Procedure: 0.5 mg of the test compound was dissolved to […]. Onto one side of filter paper having 5 cm×10 cm, the solution was applied uniformly and then air-dried. Thereafter, the filter paper was folded in half and fixed by paper clips at the side to form bag like shape. Ten Haemaphysalis longicornis was put into the bag, and then the bag was closed with a paper clip. After 2 days, the number of dead insects was examined.

Spodoptela litura = experiment: Test Example 13: cabbage test on common cutworm; format: in vivo; conditions: 50 ppm, fourth-instar, after four days
Procedure: 0.1 ml of the mixture of xylene and N,N-dimethylformamide (xylene:N,N-dimethylformamide=1:1) and 0.04 ml of the mixture of xylene and Sorpol 3005X (TOHO Chemical Industry Co. LTD) (xylene:Sorpol 3005X=1:9) were added to 16 mg of the each test compound. The mixture was diluted with water as that the active ingredient concentration came to prescribed concentration. Furthermore, spreader (Dain: Takeda Pharmaceutical Co. […] The test solution was applied to a cabbage (Brassicae oleracea) in a fifth-leaf stage at a rate 20 ml per pot. After air-drying, ten fourth-instar worm of common cutworm (Spodoptela litura) was placed onto the cabbage, and the cabbage was covered with a cup having holes. After four days, the number of dead worm was examined.

Compound	mortality at 0.5 mg/filter paper [1] [%]	also measured
C(=CC(=Nc1ccccc1)OCc1ccccc1)Sc1ccccc1 [(60), Benzyl N-phenyl-3-(phenylthio)acrylimidate]		melting point: 77 to 81 °C
O=S(=O)(C=CC(=Nc1ccccc1)Oc1ccccc1)c1ccccc1 [(99), Phenyl N-phenyl-3-(phenylsulfonyl)acrylimidate]		melting point: 110 to 116 °C
Cc1cc(C)nc(SC=CC(=Nc2ccccc2)Oc2ccccc2)n1 [(124), Phenyl 3-(4,6-dimethyl-2-pyrimidinylthio)-N-phenylacrylimidate]		melting point: 175 to 178 °C
Cc1ccc(SC=CC(=Nc2ccccc2)Sc2ccccc2)cc1 [(130), Phenyl 3-(4-methylphenylthio)-N-(phenyl)thioacrylimidate]	100	index number (mortality) (Spodoptela litura): 3 (mortality 80 to 99%)
CN(C=CC(=Nc1ccccc1)Oc1ccccc1)c1ccccc1 [(132), Phenyl 3-(N′-methyl-N′-phenylamino)-N-phenylacrylimidate]		melting point: 130 to 132 °C
C(=CN1CCCCC1)C(=Nc1ccccc1)Oc1ccccc1 [(134), Phenyl N-phenyl-3-(piperidino)acrylimidate]		melting point: 127 to 128 °C
CC(C)(C)SC=CC(=Nc1ccccc1)Oc1ccccc1 [(140), Phenyl 3-(1,1-dimethylethylthio)-N-phenylacrylimidate]		melting point: 134 to 136 °C
Cc1ccc(N=C(C=CSc2cccc(F)c2)SCC(C)C)cc1 [(429), Isobutyl 3-(3-fluorophenylthio)-N-(4-methylphenyl)thioacrylimidate]	100	
Cc1ccc(N=C(C=CSc2ccc(F)cc2)SCC(C)C)cc1 [(431), Isobutyl 3-(4-fluorophenylthio)-N-(4-methylphenyl)thioacrylimidate]	100	
Cc1ccc(N=C(C=CSc2ccccc2Cl)SCC(C)C)cc1 [(433), Isobutyl 3-(2-chlorophenylthio)-N-(4-methylphenyl)thioacrylimidate]	100	
Cc1ccc(N=C(C=CSc2cccc(Cl)c2)SCC(C)C)cc1 [(434), Isobutyl 3-(3-chlorophenylthio)-N-(4-methylphenyl)thioacrylimidate]	100	
Cc1ccc(N=C(C=CSc2ccc(Cl)cc2)SCC(C)C)cc1 [(435), Isobutyl 3-(4-chlorophenylthio)-N-(4-methylphenyl)thioacrylimidate]	100	
Cc1ccc(N=C(C=CSc2ccccc2C)SCC(C)C)cc1 [(441), Isobutyl N-(4-methylphenyl)-3-(2-methylphenylthio)thioacrylimidate]	100	
Cc1ccc(N=C(C=CSc2ccc(C)cc2)SCC(C)C)cc1 [(443), Isobutyl N-(4-methylphenyl)-3-(4-methylphenylthio)thioacrylimidate]	100	
COc1cccc(SC=CC(=Nc2ccc(C)cc2)SCC(C)C)c1 [(446), Isobutyl 3-(3-methoxyphenylthio)-N-(4-methylphenyl)thioacrylimidate]	100	
COc1ccc(SC=CC(=Nc2ccc(C)cc2)SCC(C)C)cc1 [(447), Isobutyl 3-(4-methoxyphenylthio)-N-(4-methylphenyl)thioacrylimidate]	100	
Fc1ccc(SC=CC(=Nc2ccccc2)SC2CCCCC2)cc1 [(469), Cyclohexyl 3-(4-fluorophenylthio)-N-(phenyl)thioacrylimidate]	100	
Cc1ccc(N=C(C=CSc2ccccc2)SC2CCCCC2)cc1 [(470), Cyclohexyl N-(4-methylphenyl)-3-(phenylthio)thioacrylimidate]	100	
Cc1ccc(N=C(C=CSc2ccc(F)cc2)SC2CCCCC2)cc1 [(471), Cyclohexyl 3-(4-fluorophenylthio)-N-(4-methylphenyl)thioacrylimidate]	100	
Cc1ccc(N=C(C=CSc2ccc(Cl)cc2)SC2CCCCC2)cc1 [(472), Cyclohexyl 3-(4-chlorophenylthio)-N-(4-methylphenyl)thioacrylimidate]	100	
Cc1ccc(N=C(C=CSc2ccc(C)cc2)SC2CCCCC2)cc1 [(473), Cyclohexyl N-(4-methylphenyl)-3-(4-methylphenylthio)thioacrylimidate]	100	
CCCCSC(C=CSc1ccc(F)cc1)=Nc1ccc(C)cc1 [(474), Butyl 3-(4-fluorophenylthio)-N-(4-methylphenyl)thioacrylimidate]	100	
CCCCSC(C=CSc1ccc(Cl)cc1)=Nc1ccc(C)cc1 [(475), Butyl 3-(4-chlorophenylthio)-N-(4-methylphenyl)thioacrylimidate]	100	
Cc1ccc(N=C(C=CSc2ccccc2)Sc2cccs2)cc1 [(480), 2-Thienyl N-(4-methylphenyl)-3-(phenylthio)thioacrylimidate]	100	
CCC(C)OC(C=CSc1ccc(F)cc1)=Nc1ccc(C)cc1 (centres unmarked) [(513), 1-Methylpropyl 3-(4-fluorophenylthio)-N-(4-methylphenyl)acrylimidate]	100	
